Data taken from PubChem BioAssay AID330 (DTP/NCI, 2004).
Where “and” joins values, the source holds several entries; their conditions need not be identical. Identical values can stand only once. Toxic doses and inconclusive results are not listed. Rule for the calls: active = survival T/C of 150% or more; inactive = T/C below 125% in these data.

Tested on: P388 leukemia ip, CD2F1 mice, survival T/C
Test: NCI In Vivo Anticancer Drug Screen. Data for tumor model P388 Leukemia (intraperitoneal) in CD2F1 (CDF1) mice
Details: endpoint: median survival time, higher = longer survival
Outline: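 Mice carrying the transplanted tumor received test compound or vehicle. Survival was recorded in each group, and the value is the treated-group measurement divided by that of the vehicle-treated control group.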

[1] = dose: 50.0 mg/kg/injection, schedule: Q01DX009 (ip), vehicle: Klucel (hydroxypropylcellulose) (HPC)
[2] = dose: 100.0 mg/kg/injection, schedule: Q01DX009 (ip), vehicle: Klucel (hydroxypropylcellulose) (HPC)
[3] = dose: 200.0 mg/kg/injection, schedule: Q01DX009 (ip), vehicle: Klucel (hydroxypropylcellulose) (HPC)
[4] = dose: 6.25 mg/kg/injection, schedule: Q01DX009 (ip), vehicle: saline with Tween-80
[5] = dose: 12.5 mg/kg/injection, schedule: Q01DX009 (ip), vehicle: saline with Tween-80
[6] = dose: 50.0 mg/kg/injection, schedule: Q01DX009 (ip), vehicle: saline with Tween-80
[7] = dose: 50.0 mg/kg/injection, schedule: Q01DX005 (ip), vehicle: saline with Tween-80
[8] = dose: 100.0 mg/kg/injection, schedule: Q01DX005 (ip), vehicle: saline with Tween-80
[9] = dose: 100.0 mg/kg/injection, schedule: Q04DX003 (ip), vehicle: saline with Tween-80
[10] = dose: 200.0 mg/kg/injection, schedule: Q04DX003 (ip), vehicle: saline with Tween-80
[11] = dose: 400.0 mg/kg/injection, schedule: Q04DX003 (ip), vehicle: saline with Tween-80
[12] = dose: 60.0 mg/kg/injection, schedule: Q01DX005 (ip), vehicle: saline with Tween-80
[13] = dose: 120.0 mg/kg/injection, schedule: Q01DX005 (ip), vehicle: saline with Tween-80
[14] = dose: 100.0 mg/kg/injection, schedule: Q01DX009 (ip), vehicle: saline with Tween-80
[15] = dose: 200.0 mg/kg/injection, schedule: Q01DX009 (ip), vehicle: saline with Tween-80
[16] = dose: 100.0 mg/kg/injection, schedule: Q01DX001 (ip), vehicle: Klucel (hydroxypropylcellulose) (HPC)
[17] = dose: 200.0 mg/kg/injection, schedule: Q01DX001 (ip), vehicle: Klucel (hydroxypropylcellulose) (HPC)
[18] = dose: 400.0 mg/kg/injection, schedule: Q01DX001 (ip), vehicle: Klucel (hydroxypropylcellulose) (HPC)
[19] = dose: 50.0 mg/kg/injection, schedule: Q01DX005 (ip), vehicle: Klucel (hydroxypropylcellulose) (HPC)
[20] = dose: 100.0 mg/kg/injection, schedule: Q01DX005 (ip), vehicle: Klucel (hydroxypropylcellulose) (HPC)
[21] = dose: 200.0 mg/kg/injection, schedule: Q01DX005 (ip), vehicle: Klucel (hydroxypropylcellulose) (HPC)

Measured: T/C

COc1cccc2c1C(=O)c1c(O)c3c(c(O)c1C2=O)C[C@@](O)(C(C)=O)C[C@@H]3OC1CC(N2CCOCC2)C(O)C(C)O1 (stereo not given in full)
inactive: dose: 25.0 micrograms/kg/injection, schedule: Q04DX003 (ip), vehicle: water 112 % of control | dose: 50.0 micrograms/kg/injection, schedule: Q04DX003 (ip), vehicle: water 101 % of control and 98 % of control and 108 % of control | dose: 100.0 micrograms/kg/injection, schedule: Q04DX003 (ip), vehicle: water 115 % of control [middle of 4 runs]

NN=C(c1ccccn1)c1ccccn1
inactive: dose: 37.5 mg/kg/injection, schedule: Q01DX009 (ip), vehicle: saline with Tween-80 94 % of control | dose: 75.0 mg/kg/injection, schedule: Q01DX009 (ip), vehicle: saline with Tween-80 114 % of control | dose: 150.0 mg/kg/injection, schedule: Q01DX009 (ip), vehicle: saline with Tween-80 113 % of control

c1ccc2[nH]c(-c3nc4ccccc4s3)cc2c1
inactive: [1] 106 % of control | [2] 108 % of control | [3] 98 % of control

O=C(N/N=C/c1cc(Br)cc(Br)c1[O-])c1ccccc1.O=C(N/N=C/c1cc(Br)cc(Br)c1[O-])c1ccccc1.[Co+2]
inactive: dose: 100.0 mg/kg/injection, schedule: Q01DX001 (ip), vehicle: saline with Tween-80 86 % of control

c1ccc2c(NCCCNCCCNc3c4ccccc4nc4ccccc34)c3ccccc3nc2c1
inactive: dose: 0.63 mg/kg/injection, schedule: Q01DX009 (ip), vehicle: other 112 % of control | dose: 1.25 mg/kg/injection, schedule: Q01DX009 (ip), vehicle: other 102 % of control and 118 % of control | dose: 2.5 mg/kg/injection, schedule: Q01DX009 (ip), vehicle: other 112 % of control | dose: 5.0 mg/kg/injection, schedule: Q01DX009 (ip), vehicle: other 118 % of control | dose: 10.0 mg/kg/injection, schedule: Q01DX009 (ip), vehicle: other 110 % of control

C/C(=N\NC(=O)c1ccccc1)C(=O)O
inactive: dose: 100.0 mg/kg/injection, schedule: Q04DX002 (ip), vehicle: Klucel (hydroxypropylcellulose) (HPC) 106 % of control | dose: 200.0 mg/kg/injection, schedule: Q04DX002 (ip), vehicle: Klucel (hydroxypropylcellulose) (HPC) 100 % of control | dose: 400.0 mg/kg/injection, schedule: Q04DX002 (ip), vehicle: Klucel (hydroxypropylcellulose) (HPC) 99 % of control

CCOC(=O)CC(=N)C(C#N)C(=O)OCC (stereo not given)
inactive: [4] 101 % of control | [5] 101 % of control | dose: 25.0 mg/kg/injection, schedule: Q01DX009 (ip), vehicle: saline with Tween-80 99 % of control | [6] 99 % of control

COc1ccccc1NC(=S)N/N=C\c1cc(N=Nc2ccccc2)cc(OC)c1O
inactive: [7] 89 % of control | [8] 89 % of control

CC(=O)N1c2ccccc2N(C(C)=O)c2nc3ccccc3nc21
inactive: [1] 100 % of control | [2] 100 % of control | [3] 100 % of control

Oc1ccc(/C=C/c2cc(O)cc(O)c2)cc1
inactive: dose: 18.5 mg/kg/injection, schedule: Q01DX009 (ip), vehicle: Klucel (hydroxypropylcellulose) (HPC) 101 % of control | dose: 37.0 mg/kg/injection, schedule: Q01DX009 (ip), vehicle: Klucel (hydroxypropylcellulose) (HPC) 100 % of control | dose: 74.0 mg/kg/injection, schedule: Q01DX009 (ip), vehicle: Klucel (hydroxypropylcellulose) (HPC) 93 % of control

[I][Hg][CH2]C1OCCOC1[CH2][Hg][I] (stereo not given)
inactive: [9] 118 % of control | [10] 118 % of control | [11] 90 % of control

O=C/C=C/N=c1ccn(O)cc1
inactive: dose: 60.0 mg/kg/injection, schedule: Q01DX005 (ip), vehicle: saline 105 % of control | dose: 120.0 mg/kg/injection, schedule: Q01DX005 (ip), vehicle: saline 100 % of control | dose: 240.0 mg/kg/injection, schedule: Q01DX005 (ip), vehicle: saline 109 % of control

N#Cn1c2ccccc2c(=N)c2ccccc21
inactive: [12] 103 % of control | [13] 102 % of control

CCOC(=O)C(CCC(OCC)OCC)C(=O)OCC
inactive: dose: 50.0 mg/kg/injection, schedule: Q01DX009 (ip), vehicle: saline 103 % of control | dose: 100.0 mg/kg/injection, schedule: Q01DX009 (ip), vehicle: saline 102 % of control | dose: 200.0 mg/kg/injection, schedule: Q01DX009 (ip), vehicle: saline 101 % of control

CC(C)(C)[Si](C)(C)OCc1ccccc1N1C(=O)C(NC(=O)Cc2ccccc2)C1/C=C/c1ccccc1 (stereo not given)
inactive: [6] 99 % of control | [14] 94 % of control | [15] 92 % of control

Cc1nn(C(N)=S)c(C)c1N=Nc1ccc(O)cc1
inactive: [7] 103 % of control | [8] 103 % of control | dose: 200.0 mg/kg/injection, schedule: Q01DX005 (ip), vehicle: saline with Tween-80 107 % of control

COc1c2cc(O)cc1CCCC1=CC(=O)C=C(CCC2)C1=O
inactive: [16] 99 % of control | [17] 99 % of control | [18] 108 % of control

CC1(C)C2CCC(C2)C1/C=C1/SC(=S)NC1=O (stereo not given)
inactive: [19] 99 % of control | [20] 100 % of control | [21] 100 % of control

CCCCNc1ccc(-c2c(N)nc(N)nc2CC)cc1N
inactive: [16] 101 % of control | [17] 93 % of control | [18] 94 % of control

CCOC(=O)/C(C#N)=C(\C)c1ccc(O)c(OC)c1
inactive: [12] 100 % of control | [13] 101 % of control | dose: 240.0 mg/kg/injection, schedule: Q01DX005 (ip), vehicle: saline with Tween-80 95 % of control

O=C(OCCO)c1ccccc1O
inactive: [9] 95 % of control | [10] 104 % of control | [11] 95 % of control

CCC(C(N)=O)C1=CCCCC1 (stereo not given)
inactive: [9] 104 % of control | [10] 100 % of control | [11] 100 % of control

Cc1cc2ccc(OC(=O)c3ccc(N=C(N)N)cc3)cc2oc1=O
inactive: [9] 100 % of control | [10] 91 % of control | [11] 87 % of control

O=C1OC2=C(CCc3nc(-c4ccccc4)sc32)C(N(c2ccccc2)c2ccccc2)C1(Cl)Cl (stereo not given)
inactive: [19] 96 % of control | [20] 90 % of control | [21] 86 % of control

O=[N+]([O-])c1ccc(SNc2ccc(NSc3ccc([N+](=O)[O-])cc3)cc2)cc1
inactive: dose: 12.5 mg/kg/injection, schedule: Q01DX001 (ip), vehicle: saline with Tween-80 95 % of control | dose: 25.0 mg/kg/injection, schedule: Q01DX001 (ip), vehicle: saline with Tween-80 100 % of control | dose: 50.0 mg/kg/injection, schedule: Q01DX001 (ip), vehicle: saline with Tween-80 100 % of control

CCCCOC(=S)Nc1ccccc1
inactive: dose: 50.0 mg/kg/injection, schedule: Q01DX009 (ip), vehicle: saline + Tween-80 + alcohol 99 % of control | [6] 104 % of control | dose: 100.0 mg/kg/injection, schedule: Q01DX009 (ip), vehicle: saline + Tween-80 + alcohol 108 % of control | [14] 100 % of control | dose: 200.0 mg/kg/injection, schedule: Q01DX009 (ip), vehicle: saline + Tween-80 + alcohol 98 % of control | [15] 98 % of control | dose: 400.0 mg/kg/injection, schedule: Q01DX009 (ip), vehicle: saline + Tween-80 + alcohol 97 % of control | dose: 400.0 mg/kg/injection, schedule: Q01DX009 (ip), vehicle: saline with Tween-80 110 % of control

N=C(N)c1ccc(C#Cc2ccc(C(=N)N)cc2)cc1
inactive: dose: 3.13 mg/kg/injection, schedule: Q01DX009 (ip), vehicle: saline with Tween-80 94 % of control | [4] 92 % of control | [5] 95 % of control
